# From patent US7109246B1, “Pharmaceutical compositions comprising an amphoteric surfactant an alkoxylated cetyl alcohol and a polar drug” (Hewlett Healthcare Ltd, priority 1998, dated 2006)
# Where two headings read alike, the source gives them in different places.
# How the values were obtained:
# [1] = Bioavailability and pharmacokinetics of sodium cromoglycate from the literature; assay type: in vivo, human; settings: oral, maximum administered dose of 2800 mg in a 70 kg person
# Description: Urinary levels over time are probably a better measure of bioavailability.
# Thus the maximum administered topical daily dose is expected to be 800 mg.
# [2] = cited from earlier work
# [3] = radioimmunoassay after applying an aqueous solution to skin; cited from earlier work
# [4] = cited from earlier work; remark: listed apart in the source
# [5] = test system: antigen induced wheal and flare reaction in the skin; settings: cited from earlier work
smiles,measurement,setting,value
"O=C([O-])c1cc(=O)c2c(OCC(O)COc3cccc4oc(C(=O)[O-])cc(=O)c34)cccc2o1.[Na+].[Na+] [sodium cromoglycate, disodium 5,5′-[(2-hydroxytrimethylene)dioxy]bis-[4-oxo-4H-1-benzopyran-2-carboxylate]]",absorbed dose,[1],28 mg
same,metabolism,[2]; in vivo,not metabolised
same,removal from the blood,[2]; in vivo,rapidly removed
same,bioavailability,"[2]; oral, food allergy",1%
same,sodium cromoglycate in the blood,[3],unable to detect
same,main adverse effects,"[4]; clinical practice, generally transient","headache, dizziness, local irritation of the target organ and an unpleasant taste in the mouth"
same,adverse effects,[4]; eye drops,burning and stinging
same,adverse effects,[4]; intra-nasal administration,epistaxis
same,adverse effects,[4]; oral administration,"nausea, skin rash and joint pain"
same,dependence of effect on pretreatment,[5]; 3 days pretreatment versus single dose immediately preceding skin prick testing,significant effect is observed only after pretreatment
same,effect on antigen induced wheal and flare reaction,"[5]; topical, human subjects",inhibits
